Results as given in patent publication US10377753B2, “Substituted 4-azaindoles and their use as GluN2B receptor modulators” (Janssen Pharmaceutica NV, priority 2015, dated 2019).
Where a name gives a salt, the structure may show the parent alone.

These compounds were tested against cloned human NR1/NR2B ion channels (Homo sapiens (Human), UniProt Q05586+Q13224) (assay: HNR2BC: effects of test articles on cloned human NR1/NR2B ion channels expressed in mammalian cells (FLIPR calcium flux)). Conditions: cloned human NR1/NR2B, Table 5.
cloned human NR1/NR2B ion channels, sequence (Q13224 27-1484, other chains not shown): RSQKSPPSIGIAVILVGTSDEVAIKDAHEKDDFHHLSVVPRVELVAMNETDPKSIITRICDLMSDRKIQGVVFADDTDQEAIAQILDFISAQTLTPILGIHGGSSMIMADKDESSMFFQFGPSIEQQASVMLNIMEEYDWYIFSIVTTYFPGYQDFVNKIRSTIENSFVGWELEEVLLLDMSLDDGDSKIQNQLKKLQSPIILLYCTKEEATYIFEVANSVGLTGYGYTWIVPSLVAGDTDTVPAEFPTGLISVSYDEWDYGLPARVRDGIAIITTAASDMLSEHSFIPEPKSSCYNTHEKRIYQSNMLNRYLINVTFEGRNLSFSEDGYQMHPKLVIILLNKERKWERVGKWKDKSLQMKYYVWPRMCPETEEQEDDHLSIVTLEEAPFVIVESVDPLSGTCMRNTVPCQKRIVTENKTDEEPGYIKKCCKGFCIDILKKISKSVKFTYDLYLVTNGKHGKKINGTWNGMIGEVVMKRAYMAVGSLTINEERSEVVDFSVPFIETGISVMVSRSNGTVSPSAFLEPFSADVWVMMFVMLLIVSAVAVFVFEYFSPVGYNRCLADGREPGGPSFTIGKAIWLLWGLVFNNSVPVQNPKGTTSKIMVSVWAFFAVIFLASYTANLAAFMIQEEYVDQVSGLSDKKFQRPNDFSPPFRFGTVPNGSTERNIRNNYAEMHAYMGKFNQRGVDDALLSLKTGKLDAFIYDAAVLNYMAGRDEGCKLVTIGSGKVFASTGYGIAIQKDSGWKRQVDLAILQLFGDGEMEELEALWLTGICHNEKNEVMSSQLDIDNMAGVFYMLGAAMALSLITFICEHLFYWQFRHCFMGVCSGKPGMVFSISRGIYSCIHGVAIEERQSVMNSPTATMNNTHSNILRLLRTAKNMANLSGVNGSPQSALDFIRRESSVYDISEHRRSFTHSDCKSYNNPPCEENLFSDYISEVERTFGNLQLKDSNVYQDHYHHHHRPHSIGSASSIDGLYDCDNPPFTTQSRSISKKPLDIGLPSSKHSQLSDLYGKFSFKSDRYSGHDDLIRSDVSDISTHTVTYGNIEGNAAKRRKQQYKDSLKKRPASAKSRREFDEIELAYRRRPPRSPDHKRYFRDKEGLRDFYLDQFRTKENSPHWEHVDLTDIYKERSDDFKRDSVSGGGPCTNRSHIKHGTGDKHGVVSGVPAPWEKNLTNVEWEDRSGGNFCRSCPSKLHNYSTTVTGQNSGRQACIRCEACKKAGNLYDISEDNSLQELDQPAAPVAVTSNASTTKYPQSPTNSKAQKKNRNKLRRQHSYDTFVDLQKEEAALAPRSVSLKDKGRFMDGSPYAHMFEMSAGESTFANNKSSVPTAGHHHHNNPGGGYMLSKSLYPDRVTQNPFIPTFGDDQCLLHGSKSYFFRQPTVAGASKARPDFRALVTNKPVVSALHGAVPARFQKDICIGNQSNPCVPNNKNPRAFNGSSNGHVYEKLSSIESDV
Format: cell-based
In short: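 In a stable Tet-On-induced cell line expressing human GluN1/GluN2B, Calcium 5-loaded cells were preincubated 5 min with compound, then stimulated 5 min with glutamate at ~EC80 plus 10 μM glycine, in pH 7.4 HEPES buffer. FLIPR calcium fluorescence was normalized to control wells.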
`Cc1cc(-c2cnc3ccn(Cc4ccncc4)c3c2)ccc1F` [Example 179, 6-(4-Fluoro-3-methyl-phenyl)-1-(4-pyridylmethyl)pyrrolo[3,2-b]pyridine trifluoroacetate salt] was tested, and the IC50 was 50.1 nM. `Cc1cc(-c2cnc3ccn(CCn4cccn4)c3c2)ccc1F` [Example 181, 6-(4-Fluoro-3-methyl-phenyl)-1-(2-pyrazol-1-ylethyl)pyrrolo[3,2-b]pyridine trifluoroacetate salt] showed an IC50 of 794 nM. For `O=C(Cn1cc(F)c2ncc(-c3ccc(Cl)s3)cc21)N1CCC1` [Example 182, 1-(Azetidin-1-yl)-2-[6-(5-chloro-2-thienyl)-3-fluoro-pyrrolo[3,2-b]pyridin-1-yl]ethanone], the IC50 was 3980 nM. With `Cc1cc(-c2cnc3ccn(Cc4ncccn4)c3c2)ccc1F` [Example 183, 6-(4-Fluoro-3-methyl-phenyl)-1-(pyrimidin-2-ylmethyl)pyrrolo[3,2-b]pyridine trifluoroacetate salt] the IC50 was 31.6 nM. For `Cc1cc(-c2cnc3c(F)cn(CC(=O)N4CC(F)(F)C4)c3c2)ccc1F` [Example 185, 1-(3,3-Difluoroazetidin-1-yl)-2-[3-fluoro-6-(4-fluoro-3-methyl-phenyl)pyrrolo[3,2-b]pyridin-1-yl]ethanone], the IC50 was 100 nM. Compound `Cc1cc(-c2cnc3ccn(CC(=O)C4CC4)c3c2)ccc1F` [Example 186, 1-Cyclopropyl-2-[6-(4-fluoro-3-methyl-phenyl)pyrrolo[3,2-b]pyridin-1-yl]ethanone trifluoroacetate salt] has an IC50 of 39.8 nM. In the case of `Cc1cc(-c2cnc3ccn(CC(=O)C(C)C)c3c2)ccc1F` [Example 187, 1-[6-(4-Fluoro-3-methyl-phenyl)pyrrolo[3,2-b]pyridin-1-yl]-3-methyl-butan-2-one trifluoroacetate salt], the IC50 is reported as 50.1 nM. `Cc1cc(-c2cnc3ccn(CC(=O)N4CCC(O)CC4)c3c2)ccc1F` [Example 188, 2-[6-(4-Fluoro-3-methyl-phenyl)pyrrolo[3,2-b]pyridin-1-yl]-1-(4-hydroxy-1-piperidyl)ethanone trifluoroacetate salt] was tested, and the IC50 was 50.1 nM. `COC1CCN(C(=O)Cn2ccc3ncc(-c4ccc(F)c(C)c4)cc32)CC1` [Example 190, 2-[6-(4-Fluoro-3-methyl-phenyl)pyrrolo[3,2-b]pyridin-1-yl]-1-(4-methoxy-1-piperidyl)ethanone trifluoroacetate salt] gave an IC50 of 251 nM. `Cc1cc(-c2cnc3ccn(CC(=O)N4CCC(F)CC4)c3c2)ccc1F` [Example 191, 2-[6-(4-Fluoro-3-methyl-phenyl)pyrrolo[3,2-b]pyridin-1-yl]-1-(4-fluoro-1-piperidyl)ethanone trifluoroacetate salt] showed an IC50 of 316 nM. For `Cc1cc(-c2cnc3ccn(CC(=O)N4CCC(CF)CC4)c3c2)ccc1F` [Example 192, 2-[6-(4-Fluoro-3-methyl-phenyl)pyrrolo[3,2-b]pyridin-1-yl]-1-[4-(fluoromethyl)-1-piperidyl]ethanone trifluoroacetate salt], the IC50 was 79.4 nM. With `Cc1cc(-c2cnc3ccn(CC(=O)N4CCOC(C)(C)C4)c3c2)ccc1F` [Example 197, 1-(2,2-Dimethylmorpholin-4-yl)-2-[6-(4-fluoro-3-methyl-phenyl)pyrrolo[3,2-b]pyridin-1-yl]ethanone trifluoroacetate salt] the IC50 was 1580 nM. Compound `Cc1cc(-c2cnc3ccn(CC(=O)N4CCCC4(C)C)c3c2)ccc1F` [Example 200, 1-(2,2-Dimethylpyrrolidin-1-yl)-2-[6-(4-fluoro-3-methyl-phenyl)pyrrolo[3,2-b]pyridin-1-yl]ethanone trifluoroacetate salt] has an IC50 of 251 nM. Compound `Cc1cc(-c2cnc3ccn(CC(=O)N4CC[C@@H](F)C4)c3c2)ccc1F` [Example 201, 2-[6-(4-Fluoro-3-methyl-phenyl)pyrrolo[3,2-b]pyridin-1-yl]-1-[(3R)-3-fluoropyrrolidin-1-yl]ethanone trifluoroacetate salt] has an IC50 of 3980 nM. In the case of `CC1(O)CN(C(=O)Cn2ccc3ncc(-c4ccc(F)cc4)cc32)C1` [Example 202, 2-[6-(4-Fluorophenyl)pyrrolo[3,2-b]pyridin-1-yl]-1-(3-hydroxy-3-methyl-azetidin-1-yl)ethanone], the IC50 is reported as 126 nM. Work on `O=C(Cn1ccc2ncc(-c3ccc(F)cc3)cc21)N1CC(O)(C(F)(F)F)C1` [Example 203, 2-[6-(4-Fluorophenyl)pyrrolo[3,2-b]pyridin-1-yl]-1-[3-hydroxy-3-(trifluoromethyl)azetidin-1-yl]ethanone] yielded an IC50 of 398 nM. `O=C(Cn1ccc2ncc(-c3ccc(F)cc3)cc21)N1CC(F)C1` [Example 204, 1-(3-Fluoroazetidin-1-yl)-2-[6-(4-fluorophenyl)pyrrolo[3,2-b]pyridin-1-yl]ethanone] gave an IC50 of 1580 nM. `CN(C(=O)Cn1ccc2ncc(-c3ccc(F)cc3)cc21)C1CC1` [Example 205, N-Cyclopropyl-2-[6-(4-fluorophenyl)pyrrolo[3,2-b]pyridin-1-yl]-N-methyl-acetamide] was tested, and the IC50 was 50.1 nM. Work on `O=C(Cn1ccc2ncc(-c3ccc(F)cc3)cc21)N1CC(CO)C1` [Example 206, 2-[6-(4-Fluorophenyl)pyrrolo[3,2-b]pyridin-1-yl]-1-[3-(hydroxymethyl)azetidin-1-yl]ethanone] yielded an IC50 of 316 nM. `COC1CN(C(=O)Cn2ccc3ncc(-c4ccc(F)cc4)cc32)C1` [Example 207, 2-[6-(4-Fluorophenyl)pyrrolo[3,2-b]pyridin-1-yl]-1-(3-methoxyazetidin-1-yl)ethanone] gave an IC50 of 316 nM. Work on `Cc1cc(-c2cnc3ccn(CC(=O)N4CC5(CC5)C4)c3c2)ccc1F` [Example 208, 1-(5-Azaspiro[2.3]hexan-5-yl)-2-[6-(4-fluoro-3-methyl-phenyl)pyrrolo[3,2-b]pyridin-1-yl]ethanone trifluoroacetate salt] yielded an IC50 of 316 nM. `Cc1cc(-c2cnc3ccn(CC(=O)N4CCC(C)(O)CC4)c3c2)ccc1F` [Example 209, 2-[6-(4-Fluoro-3-methyl-phenyl)pyrrolo[3,2-b]pyridin-1-yl]-1-(4-hydroxy-4-methyl-1-piperidyl)ethanone trifluoroacetate salt] showed an IC50 of 200 nM. With `O=C(Cn1ccc2ncc(-c3ccc(F)cc3)cc21)N1CC(O)C1` [Example 211, 2-[6-(4-Fluorophenyl)pyrrolo[3,2-b]pyridin-1-yl]-1-(3-hydroxyazetidine-1-yl)ethanone] the IC50 was 398 nM. `N#CC1CN(C(=O)Cn2ccc3ncc(-c4ccc(F)cc4)cc32)C1` [Example 212, 1-[2-[6-(4-Fluorophenyl)pyrrolo[3,2-b]pyridin-1-yl]acetyl]azetidine-3-carbonitrile] showed an IC50 of 316 nM. `O=C(Cn1ccc2ncc(-c3ccc(F)cc3)cc21)N1CC(F)(F)C1` [Example 213, 1-(3,3-Difluoroazetidin-1-yl)-2-[6-(4-fluorophenyl)pyrrolo[3,2-b]pyridin-1-yl]ethanone] showed an IC50 of 631 nM. For `CC1CN(C(=O)Cn2ccc3ncc(-c4ccc(F)cc4)cc32)C1` [Example 214, 2-[6-(4-Fluorophenyl)pyrrolo[3,2-b]pyridin-1-yl]-1-(3-methylazetidin-1-yl)ethanone], the IC50 was 100 nM. In the case of `CC1(C)CN(C(=O)Cn2ccc3ncc(-c4ccc(F)cc4)cc32)C1` [Example 215, 1-(3,3-Dimethylazetidin-1-yl)-2-[6-(4-fluorophenyl)pyrrolo[3,2-b]pyridin-1-yl]ethanone], the IC50 is reported as 158 nM. With `O=C1CCN(C(=O)Cn2ccc3ncc(-c4ccc(F)cc4)cc32)C1` [Example 216, 1-[2-[6-(4-Fluorophenyl)pyrrolo[3,2-b]pyridin-1-yl]acetyl]pyrrolidin-3-one trifluoroacetate salt] the IC50 was 1260 nM. In the case of `O=C(Cn1ccc2ncc(-c3ccc(F)cc3)cc21)N1CCC(F)(F)C1` [Example 217, 1-(3,3-Difluoropyrrolidin-1-yl)-2-[6-(4-fluorophenyl)pyrrolo[3,2-b]pyridin-1-yl]ethanone], the IC50 is reported as 316 nM. With `Cc1cccc(-c2cnc3ccn(CC(=O)C4CC4)c3c2)c1` [Example 219, 1-Cyclopropyl-2-[6-(m-tolyl)pyrrolo[3,2-b]pyridin-1-yl]ethanone] the IC50 was 501 nM. Work on `O=C(Cn1ccc2ncc(-c3ccccc3)cc21)C1CC1` [Example 220, 1-Cyclopropyl-2-(6-phenylpyrrolo[3,2-b]pyridin-1-yl)ethanone] yielded an IC50 of 50.1 nM. `O=C(Cn1ccc2ncc(-c3cccc(F)c3)cc21)C1CC1` [Example 221, 1-Cyclopropyl-2-[6-(3-fluorophenyl)pyrrolo[3,2-b]pyridin-1-yl]ethanone] gave an IC50 of 79.4 nM. `O=C(Cn1ccc2ncc(-c3ccc(F)cc3)cc21)C1CC1` [Example 222, 1-Cyclopropyl-2-[6-(4-fluorophenyl)pyrrolo[3,2-b]pyridin-1-yl]ethanone] gave an IC50 of 79.4 nM. `Cc1c(F)ccc(-c2cnc3ccn(CC(=O)C(C)C)c3c2)c1C` [Example 223, 1-[6-(4-Fluoro-2,3-dimethyl-phenyl)pyrrolo[3,2-b]pyridin-1-yl]-3-methyl-butan-2-one] was tested, and the IC50 was 79.4 nM. For `CCc1cccc(-c2cnc3ccn(CC(=O)C(C)C)c3c2)c1` [Example 224, 1-[6-(3-Ethylphenyl)pyrrolo[3,2-b]pyridin-1-yl]-3-methyl-butan-2-one], the IC50 was 398 nM. `Cc1cccc(-c2cnc3ccn(CC(=O)C(C)C)c3c2)c1C` [Example 225, 1-[6-(2,3-Dimethylphenyl)pyrrolo[3,2-b]pyridin-1-yl]-3-methyl-butan-2-one] gave an IC50 of 79.4 nM. `O=C(Cn1ccc2ncc(-c3ccc(F)cc3)cc21)c1ccccc1` [Example 226, 2-[6-(4-Fluorophenyl)pyrrolo[3,2-b]pyridin-1-yl]-1-phenyl-ethanone] showed an IC50 of 200 nM. `O=C(Cn1ccc2ncc(-c3ccc(F)cc3)cc21)c1ccc(F)cc1` [Example 227, 1-(4-Fluorophenyl)-2-[6-(4-fluorophenyl)pyrrolo[3,2-b]pyridin-1-yl]ethanone] gave an IC50 of 794 nM. In the case of `CC(C)NC(=O)Cn1ccc2ncc(-c3ccc(F)cc3)cc21` [Example 229, 2-[6-(4-Fluorophenyl)pyrrolo[3,2-b]pyridin-1-yl]-N-isopropyl-acetamide], the IC50 is reported as 501 nM. `CCCNC(=O)Cn1ccc2ncc(-c3ccc(F)cc3)cc21` [Example 230, 2-[6-(4-Fluorophenyl)pyrrolo[3,2-b]pyridin-1-yl]-N-propyl-acetamide] showed an IC50 of 5010 nM.
